Results on 31 molecules are retold here after patent US8361998B2, “Compounds and their use as IKACh blockers” (AstraZeneca AB, priority 2010, dated 2013).

Molecules are shown by their SMILES.

The target of the first experiment is T1, human cardiac ion channel proteins hKir3.1/Kir3.4 (Homo sapiens, UniProt P48544+P48549).
T1 construct: expressed in transfected cells
T1 sequence (P48549 1-501): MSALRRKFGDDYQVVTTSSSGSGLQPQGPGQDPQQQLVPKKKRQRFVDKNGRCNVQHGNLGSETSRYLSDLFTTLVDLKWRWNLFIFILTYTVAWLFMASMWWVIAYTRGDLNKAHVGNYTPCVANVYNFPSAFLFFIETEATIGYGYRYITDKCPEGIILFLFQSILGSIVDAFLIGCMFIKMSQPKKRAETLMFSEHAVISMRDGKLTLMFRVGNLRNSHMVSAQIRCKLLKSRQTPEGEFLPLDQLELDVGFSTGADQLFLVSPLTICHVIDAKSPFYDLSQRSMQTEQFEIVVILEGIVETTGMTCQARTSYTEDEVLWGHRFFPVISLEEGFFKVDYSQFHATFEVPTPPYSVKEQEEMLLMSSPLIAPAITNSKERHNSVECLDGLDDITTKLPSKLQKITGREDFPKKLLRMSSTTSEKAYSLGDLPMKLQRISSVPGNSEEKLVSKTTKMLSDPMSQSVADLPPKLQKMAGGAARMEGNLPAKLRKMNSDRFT
T1 sequence (P48544 1-419): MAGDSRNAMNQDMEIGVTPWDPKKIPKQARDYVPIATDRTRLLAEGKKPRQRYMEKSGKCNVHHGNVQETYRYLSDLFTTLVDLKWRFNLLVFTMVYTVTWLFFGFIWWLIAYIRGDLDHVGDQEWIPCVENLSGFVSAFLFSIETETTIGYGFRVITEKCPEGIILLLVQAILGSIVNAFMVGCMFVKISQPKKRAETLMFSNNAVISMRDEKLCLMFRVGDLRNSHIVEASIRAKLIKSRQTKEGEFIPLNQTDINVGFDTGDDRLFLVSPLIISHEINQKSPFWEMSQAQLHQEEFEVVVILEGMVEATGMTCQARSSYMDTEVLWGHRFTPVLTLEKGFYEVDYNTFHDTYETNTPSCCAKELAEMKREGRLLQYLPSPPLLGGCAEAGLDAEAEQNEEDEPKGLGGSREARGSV
The experiment in a line: Atomic Absorption Screening (AAS) Rb efflux assay of hKir3.1/Kir3.4 block, carbachol/high K+ stimulated, 10-pt or 7-pt CR. The experiment is classed as cell-based. The settings on record: 7-pt CR (0.037 to 27 μmol/L), AAS Rb efflux, CHO-K1 cells expressing hKir3.1/Kir3.4; mean of >3 replicates; read-out: IKACh IC50 7-pt CR, AAS. In a few lines:
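Mean IC50s derive from >4 replicates over 0.003–67 μmol/L (10-point) or >3 replicates over 0.037–27 μmol/L (7-point), both threefold steps. Rb-loaded (3 h, 37° C) CHO-K1 cells stably expressing hKir3.1/Kir3.4 saw compound for 5 min at RT before 10-min channel opening by carbachol 10 μM/KCl 20 mM final. Released Rb was quantified by atomic absorption.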
The IC50 is the concentration needed to halve the response being measured. Turning to `CC(C)[C@@H](CN1CC[C@H](O)C1)N(C)C(=O)c1cccc(OC(F)(F)F)c1` [Example 16.42, N-[(1S)-1-{[(3S)-3-Hydroxypyrrolidin-1-yl]methyl}-2-methylpropyl]-N-methyl-3-(tri-fluoromethoxy)benzamide], the IC50 came to 3900 nM.
For the molecule `CC(C)[C@@H](CN1CCCC1)N(C)C(=O)c1cccc(Cl)c1F` [Example 16.17, (S)-3-Chloro-2-fluoro-N-methyl-N-(3-methyl-1-(pyrrolidin-1-yl)butan-2-yl)benzamide], the IC50 was determined as 1200 nM.
As to `Cc1cc(C(=O)N(C)[C@H](CN2CCCCC2)C(C)C)ccc1Cl` [Example 16.25, 4-Chloro-N,3-dimethyl-N-[(1S)-2-methyl-1-(piperidin-1-ylmethyl)propyl]benzamide], the IC50 was found to be 2800 nM.
For the molecule `Cc1c(F)cccc1C(=O)N(C)[C@H](CN1CC[C@H](O)C1)C(C)C` [Example 16.45, 3-Fluoro-N—((S)-1-((S)-3-hydroxypyrrolidin-1-yl)-3-methylbutan-2-yl)-N,2-dimethylbenzamide], the IC50 was determined as 16000 nM.
Consider `CC(C)[C@@H](CN1CC[C@H](O)C1)N(C)C(=O)c1ccc(OC(F)(F)F)cc1` [Example 16.41, N-[(1S)-1-{[(3S)-3-Hydroxypyrrolidin-1-yl]methyl}-2-methylpropyl]-N-methyl-4-(trifluoromethoxy)benzamide], for which the IC50 is 6800 nM.
The same measure, in the same setting: the same measure for `CC(C)[C@@H](CN1CCCCC1)N(C)C(=O)c1ccc(Cl)c(Cl)c1` [Example 16.28, 3,4-Dichloro-N-methyl-N-[(1S)-2-methyl-1-(piperidin-1-ylmethyl)propyl]benzamide]: 840 nM.

Staying with this experiment, now noted: 10-pt CR (0.003 to 67 μmol/L), AAS Rb efflux, CHO-K1 cells expressing hKir3.1/Kir3.4; mean of >4 replicates; read-out: IKACh IC50 10-pt CR, AAS.
`COc1cc(C(=O)N(C)[C@H](CN2CCCC(F)(F)C2)C(C)C)ccc1C` [Example 16.4, (S)—N-(1-(3,3-Difluoropiperidin-1-yl)-3-methylbutan-2-yl)-3-methoxy-N,4-dimethylbenzamide]: the IC50 amounted to 18000 nM.
For `Cc1cc(C(=O)N(C)[C@@H](CN2CC(O)C2)C2CCC2)ccc1F` [Example 35.4, N-[(1R)-1-Cyclobutyl-2-(3-hydroxyazetidin-1-yl)ethyl]-4-fluoro-N,3-dimethylbenzamide], the IC50 stood at 660 nM.
Same read-out and setting: then `CCC[C@@H](CN1CCC(OC)CC1)N(C)C(=O)c1ccc(Cl)cc1` [Example 45, (S)-4-Chloro-N-(1-(4-methoxypiperidin-1-yl)pentan-2-yl)-N-methylbenzamide], with 680 nM.
In the case of `CN(C(=O)c1cccc(C#N)c1)[C@H](CN1CC(O)C1)C1CCCCC1` [Example 36.3, 3-Cyano-N-[(1S)-1-cyclohexyl-2-(3-hydroxyazetidin-1-yl)ethyl]-N-methylbenzamide], the IC50 is 920 nM.
In the case of `CSc1ccc(C(=O)N(C)[C@@H](CC(C)C)CN2CC(O)C2)cc1` [Example 38.8, N-[(2S)-1-(3-Hydroxyazetidin-1-yl)-4-methylpentan-2-yl]-N-methyl-4-(methylsulfanyl)benzamide], the IC50 stood at 830 nM.
The same measure, in the same setting: then `CN(C(=O)c1cccc(Cl)c1F)[C@@H](CN1CC(O)C1)C1CCC1` [Example 35.11, 3-Chloro-N-[(1R)-1-cyclobutyl-2-(3-hydroxyazetidin-1-yl)ethyl]-2-fluoro-N-methylbenzamide], with 4800 nM.
Consider `COC1CCN(C[C@H](C(C)C)N(C)C(=O)c2ccc(Br)cc2)CC1` [Example 3.6, (S)-4-Bromo-N-(1-(4-methoxypiperidin-1-yl)-3-methylbutan-2-yl)-N-methylbenzamide], for which the IC50 worked out at 3200 nM.
On the same count and under the same terms, the same measure for `C[C@@H](CN1CC(O)C1)N(C)C(=O)c1ccc(Cl)cc1` [Example 40.1, (S)-4-Chloro-N-(1-(3-hydroxyazetidin-1-yl)propan-2-yl)-N-methylbenzamide]: 9700 nM.
In the case of `CC(C)[C@@H](CN1CCCC(F)(F)C1)N(C)C(=O)c1ccc(F)c(Cl)c1` [Example 16.1, (S)-3-Chloro-N-(1-(3,3-difluoropiperidin-1-yl)-3-methylbutan-2-yl)-4-fluoro-N-methylbenzamide], the IC50 amounted to 17000 nM.
`CN(C(=O)c1ccc(F)c(Cl)c1)[C@H](CN1CCCC1)C1CC1` [Example 13.1, (S)-3-Chloro-N-(1-cyclopropyl-2-(pyrrolidin-1-yl)ethyl)-4-fluoro-N-methylbenzamide]: the IC50 worked out at 2500 nM.
`COC1CCN(C[C@H](C(C)C)N(C)C(=O)c2ccc(Cl)cc2)CC1` [Example 3.7, (S)-4-Chloro-N-(1-(4-methoxypiperidin-1-yl)-3-methylbutan-2-yl)-N-methylbenzamide]: the IC50 was 1300 nM.
As for `CC(C)[C@@H](CN1CC[C@@H](O)C1)N(C)C(=O)c1ccc(F)c(C(F)(F)F)c1` [Example 17.7, 4-Fluoro-N—((S)-1-((R)-3-hydroxypyrrolidin-1-yl)-3-methylbutan-2-yl)-N-methyl-3-(trifluoromethyl)benzamide], the IC50 turned out to be 3600 nM.
Turning to `Cc1cc(C(=O)N(C)[C@H](CCN2CCCC2)C(C)C)ccc1F` [Example 13.4, (R)-4-Fluoro-N,3-dimethyl-N-(4-methyl-1-(pyrrolidin-1-yl)pentan-3-yl)benzamide], the IC50 amounted to 19000 nM.
On the same count and under the same terms, the same measure for `Cc1ccc(C(=O)N(C)[C@H](CN2CCCC2)C2CC2)cc1C` [Example 13.2, (S)-N-(1-Cyclopropyl-2-(pyrrolidin-1-yl)ethyl)-N,3,4-trimethyl-benzamide]: 3900 nM.
As to `CC(C)[C@@H](CN1CC(C)(O)C1)N(C)C(=O)c1ccc(Br)cc1` [Example 9.6, (S)-4-Bromo-N-(1-(3-hydroxy-3-methylazetidin-1-yl)-3-methyl-butan-2-yl)-N-methylbenzamide], the IC50 is 2800 nM.
Regarding `CCC[C@@H](CN1CC(O)C1)N(C)C(=O)c1ccc(F)c(C)c1` [Example 8.11, (S)-4-Fluoro-N-(1-(3-hydroxyazetidin-1-yl)pentan-2-yl)-N,3-di-methylbenzamide], the IC50 was 840 nM.
`CN(C(=O)c1ccc(Br)cc1)[C@H](CN1CCCC1)C(C)(C)C` [Example 2.2, (S)-4-Bromo-N-(3,3-dimethyl-1-(pyrrolidin-1-yl)butan-2-yl)-N-methylbenzamide]: the IC50 stood at 14000 nM.
For the molecule `Cc1cc(C(=O)N(C)[C@H](CN2CC(F)C2)C(C)C)ccc1F` [Example 1.5, (S)-4-Fluoro-N-(1-(3-fluoroazetidin-1-yl)-3-methylbutan-2-yl)-N,3-dimethylbenzamide], the IC50 came out at 12000 nM.
The same measure, in the same setting: the same measure for `CC[C@H](C)[C@@H](CN1CC(O)C1)N(C)C(=O)c1ccc(Cl)cc1` [Example 29.2, 4-Chloro-N-((2S,3S)-1-(3-hydroxyazetidin-1-yl)-3-methylpentan-2-yl)-N-methylbenzamide]: 160 nM.
For `CC(C)[C@@H](CN1CCC1)N(C)C(=O)c1ccc(F)c(C(F)(F)F)c1` [Example 1.11, (S)-N-(1-(Azetidin-1-yl)-3-methylbutan-2-yl)-4-fluoro-N-methyl-3-(trifluoromethyl)benzamide], the IC50 is 1200 nM.
Regarding `Cc1ccc(F)c(C(=O)N(C)[C@H](CN2CC(O)C2)C2CCC2)c1` [Example 39.10, (S)—N-(1-Cyclobutyl-2-(3-hydroxyazetidin-1-yl)ethyl)-2-fluoro-N,5-dimethylbenzamide], the IC50 was found to be 810 nM.
`CC(C)[C@@H](CN1CC[C@@H](O)C1)N(C)C(=O)c1ccc(Br)cc1` [Example 17.5, 4-Bromo-N—((S)-1-((R)-3-hydroxypyrrolidin-1-yl)-3-methylbutan-2-yl)-N-methylbenzamide]: the IC50 worked out at 2700 nM.

The same experiment, now with this note: printed as IC50 >67 μM in the 10-pt CR assay or IC50 >27 μM in the 7-pt CR assay; assay format per compound not stated; read-out: IC50.
For `CC(C)[C@@H](CN1CCCC1)N(C)C(=O)c1ccc(F)cc1` [4-Fluoro-N-methyl-N-[(1S)-2-methyl-1-(pyrrolidin-1-ylmethyl)propyl]benzamide], the IC50 is more than 27000 nM.
Consider `CC(C)[C@@H](CN1C[C@@H](O)[C@H](O)C1)N(C)C(=O)c1ccc(C#N)cc1` [4-Cyano-N-((S)-1-((3R,4R)-3,4-dihydroxypyrrolidin-1-yl)-3-methylbutan-2-yl)-N-methylbenzamide], for which the IC50 was more than 27000 nM.
As to `CC(C)[C@@H](CN1CC[C@H](O)C1)N(C)C(=O)c1cc(F)cc(F)c1F` [2,3,5-Trifluoro-N-[(1S)-1-{[(3S)-3-hydroxypyrrolidin-1-yl]methyl}-2-methylpropyl]-N-methylbenzamide], the IC50 is more than 27000 nM.
